Measurements reported in publication doi:10.1101/2024.06.26.600887v2 (biorxiv, 2024).

Key:
[1] = target: T1, His-HAO1 (recombinant glycolate oxidase, 2-hydroxyacid oxidase) (Homo sapiens, UniProt Q9UJM8); experiment: SPR; assay type: binding
T1 sequence (Q9UJM8 1-370): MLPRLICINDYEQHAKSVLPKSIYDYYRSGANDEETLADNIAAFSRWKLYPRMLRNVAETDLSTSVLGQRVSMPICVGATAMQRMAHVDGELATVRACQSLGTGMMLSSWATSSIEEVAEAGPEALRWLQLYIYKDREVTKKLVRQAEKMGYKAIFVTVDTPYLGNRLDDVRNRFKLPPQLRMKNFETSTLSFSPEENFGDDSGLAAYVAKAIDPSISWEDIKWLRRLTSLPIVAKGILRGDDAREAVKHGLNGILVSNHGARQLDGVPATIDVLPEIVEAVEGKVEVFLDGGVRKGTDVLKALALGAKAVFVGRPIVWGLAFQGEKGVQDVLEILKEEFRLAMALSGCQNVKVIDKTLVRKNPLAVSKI

[2] = target: T1, His-HAO1 (recombinant glycolate oxidase, 2-hydroxyacid oxidase); experiment: DSF thermal stabilisation, SYPRO Orange; assay type: binding
HAO1-HiBiT = target: T2, HAO1-HiBiT (Homo sapiens, UniProt Q9UJM8); experiment: SplitLuc CETSA in HEK293T lysate, LgBiT luminescence; assay type: biochemical
T2 sequence (Q9UJM8 1-370): T1 sequence (Q9UJM8 1-370)

[3] = target: T1, His-HAO1 (recombinant glycolate oxidase, 2-hydroxyacid oxidase); experiment: Amplex Red activity assay; assay type: biochemical

Compound	Kd [1]	EC50 [2]	EC50 (HAO1-HiBiT)	IC50 [3]
NS(=O)(=O)c1ccc(Cc2c(-c3ccc(F)c(-c4ccc(Oc5nn[nH]c5C(=O)O)cc4)c3)nn(-c3nc(C(=O)O)cs3)c2CC2CC2)cc1F [compound 1, Compound 1]	3.9 nM	5010 nM	2200 nM	25.1 nM
O=C(O)c1nn[nH]c1Oc1ccc(-c2ccc(C3CC(F)(F)C3)cc2)cc1 [compound 2, Compound 2]	4.4 nM	3980 nM	1800 nM	20 nM
